Data reported in paper PMC9039177 (Frontiers in Chemistry, 2022).
≈ marks a conversion by molar mass, not a printed value. Where “and” joins values, the source holds several entries; their conditions need not be identical. Identical values can stand only once. Entries after “also recorded” stand apart in the source; their conditions may differ. Counter-ions that a name gives are not always drawn. Like-named read-outs stand apart in the source and are kept apart here.

Experiments:
SARS-CoV-2 PLpro [1] = biological target: T1, SARS-CoV-2 PLpro (Severe acute respiratory syndrome coronavirus 2, UniProt P0DTD1); assay: biochemical
in vitro [2] = settings: human, microsomes, pH 7.4
in vitro [3] = settings: human, Caco-2, pH 7.4
in vitro [4] = settings: mouse, microsomes, pH 7.4
SARS-CoV-2 PLpro [5] = biological target: T1, SARS-CoV-2 PLpro; assay: biochemical; assay type: binding
SARS-CoV PLpro [6] = biological target: T2, SARS-CoV PLpro (Severe acute respiratory syndrome coronavirus, UniProt P0C6X7); assay: biochemical; assay type: binding
[7] = system: human DUBs (panel of 41 enzymes); assay type: biochemical
MERS-CoV PLpro [8] = biological target: T3, MERS-CoV PLpro (Middle East respiratory syndrome-related coronavirus, UniProt K9N7C7); assay: biochemical; assay type: binding
T3 sequence (K9N7C7 1482-1803 limits assumed): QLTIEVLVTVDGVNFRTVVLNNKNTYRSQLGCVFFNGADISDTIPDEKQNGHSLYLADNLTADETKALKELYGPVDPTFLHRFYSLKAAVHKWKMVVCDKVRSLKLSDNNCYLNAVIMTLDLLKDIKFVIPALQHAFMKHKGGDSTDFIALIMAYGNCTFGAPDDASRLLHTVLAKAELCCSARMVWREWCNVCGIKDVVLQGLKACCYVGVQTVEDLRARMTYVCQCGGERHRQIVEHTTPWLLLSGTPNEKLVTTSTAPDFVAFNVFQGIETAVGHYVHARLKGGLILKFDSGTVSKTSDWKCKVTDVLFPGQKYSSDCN

MERS-CoV PLpro [9] = biological target: T3, MERS-CoV PLpro; assay: biochemical
SARS-CoV PLpro [10] = biological target: T2, SARS-CoV PLpro; assay: biochemical
SARS-CoV-2 [11] = assay type: cell-based
physchem = settings: kinetic from dmso stock
SARS-CoV-2 PLpro [12] = biological target: T1, SARS-CoV-2 PLpro; settings: read-out: IC50 against PLpro; cited from earlier work
human USP21 = human USP21 (Homo sapiens, UniProt Q9UK80); assay: biochemical
Chain of human USP21 (Q9UK80 whole entry): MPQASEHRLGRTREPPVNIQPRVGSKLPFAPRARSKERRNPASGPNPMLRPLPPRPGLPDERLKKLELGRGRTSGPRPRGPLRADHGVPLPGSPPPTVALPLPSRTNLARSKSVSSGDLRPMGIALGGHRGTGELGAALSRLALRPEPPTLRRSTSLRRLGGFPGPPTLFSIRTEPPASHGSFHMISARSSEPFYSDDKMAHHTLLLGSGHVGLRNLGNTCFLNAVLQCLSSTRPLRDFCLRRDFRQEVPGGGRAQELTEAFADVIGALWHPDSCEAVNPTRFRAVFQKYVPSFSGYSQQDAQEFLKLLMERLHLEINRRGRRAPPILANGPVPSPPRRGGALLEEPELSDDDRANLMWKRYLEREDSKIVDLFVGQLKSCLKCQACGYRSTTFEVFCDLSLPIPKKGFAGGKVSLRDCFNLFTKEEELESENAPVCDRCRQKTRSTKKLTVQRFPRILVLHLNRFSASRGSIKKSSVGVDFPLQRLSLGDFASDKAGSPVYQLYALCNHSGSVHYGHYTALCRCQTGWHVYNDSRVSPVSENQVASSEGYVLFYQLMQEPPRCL

SARS-CoV-2 [13] = settings: cited from earlier work

In the case of `C[C@H](c1cccc2ccccc12)N1CCC(C(=O)NCC2CCOCC2)CC1` [Compound 17, (R)-1-(1-(naphthalen-1-yl)ethyl)-N-((tetrahydro-2H-pyran-4-yl)methyl)piperidine-4-carboxamide], the IC50 (SARS-CoV-2 PLpro [1]; calculated IC50) is reported as 1300 nM.

For `C[C@H](c1cccc2ccccc12)N1CCC(C(=O)NCc2ccc(S(N)(=O)=O)cc2)CC1` [Compound 16, (R)-1-(1-(naphthalen-1-yl)ethyl)-N-(4-sulfamoylbenzyl)piperidine-4-carboxamide formate], the IC50 (SARS-CoV-2 PLpro [1]; calculated IC50) was 590 nM.

For `CNC(=O)C1CCN([C@H](C)c2cccc3ccccc23)CC1` [Compound 12, (R)-N-methyl-1-(1-(naphthalen-1-yl)ethyl)piperidine-4-carboxamide], the “loss of potency relative to parent 5c” value (SARS-CoV-2 PLpro [1]) was 4 fold and the IC50 (SARS-CoV-2 PLpro [1]; calculated IC50) was 3100 nM.

`COc1cc(CNC(=O)C2CCN([C@H](C)c3cccc4ccccc34)CC2)ccn1` [Compound 5c] gave a half-life (in vitro [2]) of 16 min, a microsomal CLint (in vitro [2]) of 110 µL/min/mg and a Papp A→B (in vitro [3]) of 53 ×10⁻⁶ cm/s. For the same compound, the Papp B→A (in vitro [3]) was 55 ×10⁻⁶ cm/s, the half-life (in vitro [4]) was 20 min and the microsomal CLint (in vitro [4]) was 86 µL/min/mg. It also gave a Kd (SARS-CoV-2 PLpro [5]; KD Exp1, SARS-CoV-2 PLpro WT) of 4110 nM, a Kd (SARS-CoV-2 PLpro [5]; KD Exp2, SARS-CoV-2 PLpro WT) of 2450 nM and a Kd (SARS-CoV-2 PLpro [5]; KD Exp3, SARS-CoV-2 PLpro WT) of 2600 nM. It also gave a Kd (SARS-CoV-2 PLpro [5]; KD, SARS-CoV-2) of 3050 ± 920 nM, a Kd (SARS-CoV PLpro [6]; KD Exp1, SARS-CoV) of 833 nM and a Kd (SARS-CoV PLpro [6]; KD Exp2, SARS-CoV) of 880 nM. The Kd (SARS-CoV PLpro [6]; KD Exp3, SARS-CoV) was 853 nM, the Kd (SARS-CoV PLpro [6]; KD, SARS-CoV) was 855 nM and 860 nM and the “Mouse plasma protein binding” value was 86.3 % bound. The “efflux in Caco-2” value (Caco-2 cell monolayers) was “no evidence of efflux”, the IC50 (SARS-CoV-2 PLpro [1]; IC50, SARS-CoV-2) was 720 nM and the IC50 (SARS-CoV-2 PLpro [1]; calculated IC50) was 860 nM. The “inhibition of human DUBs” value [7] was “did not inhibit any of the human DUBs tested; also recorded: does not notably inhibit any of the tested human DUBs”, the Kd (MERS-CoV PLpro [8]) was > 20000 nM and the Kd (MERS-CoV PLpro [8]; read-out: KD Exp1, MERS-CoV) was > 20000 nM. For the same compound, the Kd (MERS-CoV PLpro [8]; read-out: KD Exp3, MERS-CoV) was > 20000 nM, the IC50 (MERS-CoV PLpro [9]) was > 98000 nM and the IC50 (SARS-CoV PLpro [10]) was 500 nM. The “reduction of viral titer” value (SARS-CoV-2 [11]) was 1 log, the solubility kinetic (physchem; pH 2, aqueous buffer) was > 100 µg/mL and the solubility kinetic (physchem; pH 6.5, aqueous buffer) was 50 to 100 µg/mL (≈ 124 to 248 µM).

In the case of `COc1cc(CNC(=O)C2CCN(C(C)c3ccc(OC)c4ccccc34)CC2)ccn1` (stereo not shown) [Compound 9, 1-[1-(4-methoxynaphthalen-1-yl)ethyl]-N-[(2-methoxypyridin-4-yl)methyl]piperidine-4-carboxamide], the half-life (in vitro [2]) is reported as 39 min, the microsomal CLint (in vitro [2]) is reported as 45 µL/min/mg and the Papp A→B (in vitro [3]) is reported as 46 ×10⁻⁶ cm/s. For the same compound, the Papp B→A (in vitro [3]) was 46 ×10⁻⁶ cm/s, the half-life (in vitro [4]) was 35 min and the microsomal CLint (in vitro [4]) was 50 µL/min/mg. It also gave a Kd (SARS-CoV-2 PLpro [5]; KD Exp1, SARS-CoV-2 PLpro WT) of 1420 nM, a Kd (SARS-CoV-2 PLpro [5]; KD Exp2, SARS-CoV-2 PLpro WT) of 1820 nM and a Kd (SARS-CoV-2 PLpro [5]; KD Exp3, SARS-CoV-2 PLpro WT) of 2340 nM. For the same compound, the Kd (SARS-CoV-2 PLpro [5]; KD, SARS-CoV-2) was 1860 ± 460 nM, the Kd (SARS-CoV PLpro [6]; KD Exp1, SARS-CoV) was 805 nM and the Kd (SARS-CoV PLpro [6]; KD Exp2, SARS-CoV) was 800 nM. For the same compound, the Kd (SARS-CoV PLpro [6]; KD Exp3, SARS-CoV) was 840 nM, the Kd (SARS-CoV PLpro [6]; KD, SARS-CoV) was 815 nM and 820 nM and the “Mouse plasma protein binding” value was 90.1 % bound. The “efflux in Caco-2” value (Caco-2 cell monolayers) was “no evidence of efflux”, the IC50 (SARS-CoV-2 PLpro [1]; IC50, SARS-CoV-2) was 760 nM and the Kd (MERS-CoV PLpro [8]) was > 20000 nM. For the same compound, the Kd (MERS-CoV PLpro [8]; read-out: KD Exp1, MERS-CoV) was > 20000 nM, the Kd (MERS-CoV PLpro [8]; read-out: KD Exp3, MERS-CoV) was > 20000 nM and the IC50 (MERS-CoV PLpro [9]) was > 98000 nM. The IC50 (SARS-CoV PLpro [10]) was 700 nM, the “reduction of viral titer” value (SARS-CoV-2 [11]) was 1 log and the viral titer (SARS-CoV-2 [11]) was “below the limit of detection”. For the same compound, the solubility kinetic (physchem; pH 2, aqueous buffer) was > 140 µg/mL and the solubility kinetic (physchem; pH 6.5, aqueous buffer) was 70 to 140 µg/mL (≈ 161 to 323 µM).

In the case of `COc1cc(CNC(=O)C2CCN(C(C)c3ccc(F)c4ccccc34)CC2)ccn1` (stereo not shown) [Compound 8, 1-[1-(4-fluoronaphthalen-1-yl)ethyl]-N-[(2-methoxypyridin-4-yl)methyl]piperidine-4-carboxamide], the “loss of potency relative to parent 5c” value (SARS-CoV-2 PLpro [1]) is reported as 3 fold and the IC50 (SARS-CoV-2 PLpro [1]; calculated IC50) is reported as 2200 nM.

For `COc1cc(CNC(=O)C2CCN(C(C)c3c(OC)ccc4ccccc34)CC2)ccn1.O=CO` (stereo not shown) [Compound 6, 1-[1-(2-methoxynaphthalen-1-yl)ethyl]-N-[(2-methoxypyridin-4-yl)methyl]piperidine-4-carboxamide formate], the “potency against SARS-CoV-2 PLpro in words” value (SARS-CoV-2 PLpro [1]) was “not tolerated”.

With `COc1cc(CNCC2CCN([C@H](C)c3cccc4ccccc34)CC2)ccn1.O=CO` [Compound 11, (R)-1-(2-methoxypyridin-4-yl)-N-((1-(1-(naphthalen-1-yl)ethyl)piperidin-4-yl)methyl)methanamine formate] the “loss of potency relative to parent 5c” value (SARS-CoV-2 PLpro [1]) was 7 fold and the IC50 (SARS-CoV-2 PLpro [1]; calculated IC50) was 5700 nM.

In the case of `CCOc1ccc2ccccc2c1C(C)N1CCC(C(=O)NCc2ccnc(OC)c2)CC1` (stereo not shown) [Compound 7, 1-[1-(2-ethoxynaphthalen-1-yl)ethyl]-N-[(2-methoxypyridin-4-yl)methyl]piperidine-4-carboxamide], the “potency against SARS-CoV-2 PLpro in words” value (SARS-CoV-2 PLpro [1]) is reported as “not tolerated”.

In the case of `CC(c1cccc2ccccc12)N1CCC(C(=O)NCc2cccc(F)c2)CC1` (stereo not drawn) [rac3k], the IC50 (SARS-CoV-2 PLpro [1]; PLpro IC50) is listed as 1500 nM, the IC50 (SARS-CoV-2 PLpro [12]) is listed as 600 to 800 nM and the IC50 (human USP21) is listed as > 98000 nM. For the same compound, the “decrease of SARS-CoV-2 viral titers (TCID50)” value (SARS-CoV-2 [13]) was 2-3 orders of magnitude.
